According to patent publication US20120003298A1, “METHODS FOR INDUCING AN IMMUNE RESPONSE” (priority 2010, published 2012):

Key:
[1] = system: human whole blood; assay: Cytokine secretion in human whole blood assay, ELISA; assay type: cell-based; conditions: whole blood, 6 hours
Method: Before drawing the blood, the compounds were added to 96 well round bottom plates in a 10× diluted sample at 20 ul. The compounds were diluted in RPMI media without serum but with antibiotics. Antibiotics were added at a 10× concentration. After drawing the blood, the whole blood sample was gently mixed to obtain a homogeneous sample, and 180 ul was added to each well.
All compounds were setup in concentrations at 0-0.01-0.03-0.1-0.5-2.0-10.0 micromolar as the final concentration. Vehicle control was DMSO control, where we used the highest concentration used for the compounds. After addition of blood, all plates were gently agitated at 37° C. and 5% CO2 until harvest.
For the 6 hours time point, the plate was centrifuged 500×g. Supernatant (SN) was transferred to a tube and centrifuged at 10.000×g for 10 min to get rid of cells and protein aggregates. The clarified supernatant was frozen at −80° C. until analysis.
The SN was removed to another tube and centrifuged at 10.000×g for 10 min. to get rid of aggregates etc. The clarified supernatant was frozen at −80° C. until analysis.
Concentrations of cytokines were determined by ELISA from R&D Systems. The results were analyzed in Graph Pad Prism in order to prepare dose-response
curves, and for determination of EC50 values. FACS analysis was made by using Becton-Dickinson FACSDiva software and subsequently illustrated in Graph Pad Prism.

[2] = Intravenous pharmacokinetics in the mouse
Method: An IV bolus was administered into the caudal vein at a dose of 1 mg/kg in 5 ml. The compound weight was 2.08/10.04 ml. 24 mice were studied. Sampling was obtained by exsanguination under anesthesia, at 5, 15, 30, 60, 240, and 480 minutes, and at 24 hours. […] Animals were sacrificed using ethyl ether at the conclusion of the experiment.
Sample preparation: In a Sirocco filter plate, 100 microliters of plasma were added to 300 microliters of ACN/MeOH spiked with 5 microliters of IS (IV298 10 micrograms per ml) plus 10 microliters of 5% H3PO4. The plate was shaken for 10 minutes at 80 rpm and then filtered under vacuum for 5 minutes.
Analytical method: LC/MS/MS: Premiere XE, Eluent: water (A) MeOH(B) plus 0.1% HCOOH gradient. 15% B to 100% B from 0.1 to 0.5, then isocratic 100% B up to 1.5 minutes, flow 0.8 ml/min; Column Acquity HPLC BEH C18 1.7 microm 2.1×50 mm, injection volume of 5 microliters in a T column at 50° C. ESI positive, MRM, Extractor 5V; Capillary 3.5 kV; T source 115° C.; T desolv. 450° C.
Data analysis: Non-compartmental analysis WinNonlin 5.1; linear trapezoidal, uniform weight.

[3] = system: AY-27 rat bladder cancer cell-line; conditions: in vivo
[4] = Single dose intravenous toxicity study in rats; assay type: in vivo, Sprague Dawley rat
Method: An additional group, similarly composed, received the vehicle alone and acted as a control. […] Clinical signs were limited to piloerection and reduced activity, observed on the day of dosing.
A second group was dosed at 100 mg/kg. […] A third group was then dosed at 85 mg/kg. […] A fourth group was finally dosed at 90 mg/kg. […] Piloerection was observed from Day 2 up to Day 4 of the study.
In the main phase, 5 male and 5 female animals were dosed at 90 mg/kg and observed for a period of 14 days. A second group, similarly constituted, received the vehicle alone and acted as control. […] In addition, one male and one female dosed at 90 mg/kg were found dead on Day 2 of the study. Twitches, ataxia, piloerection, reduced activity and hunched posture were the major signs observed in animals before death. […] Piloerection was observed up to Day 3 of the study. A second group, similarly composed, was dosed at 80 mg/kg.
Recovery occurred by Day 15 and the body weight changes were within the expected range for this species and age of animals at the end of the study. […] Surviving animals were killed at the end of the observation period with carbon dioxide narcosis. All animals, including the early decedents, were subjected to necropsy examination. […] Therefore, the maximum tolerated dose in this study was considered to be 80 mg/kg.

[5] = system: myeloid CD11c+/CD123− DCs; assay: FACS, myeloid DC activation in whole blood; assay type: cell-based, human; conditions: 24 hours; 0.1 and 0.5 uM
Method: The FACS analysis for donor 1 and donor 2 was made on another day than donor 3. The compound concentrations were as follows:
B cell activation: 2 and 10 uM mDC/pDC: 0.1 and 0.5 uM
The FACS analysis was used to identify whether the test compounds could induce activation of B cells, and two different subsets of dendritic cells, namely the myeloid CD11c+/CD123− DCs and the plasmacytoid CD11c−/CD123+DCs. The following markers were studied to identify the activation status of the different subsets:
The FACS staining was performed according to the manufacturer's instructions. Lysis of red blood cells was performed before FACS staining in order to minimize auto-florescence. To include as many B cells and DCs in the study as possible the FACS analyses were performed on 500,000 cells in total for each staining. A P1 gate was set only to include relevant cells on FSC vs. SSC (see FIGS. 12-15). The results of the individual analysis were present as Mean Fluorescence Intensity (MFI) values, for certain activation marker in a given gate setting, represent the actual cell subset. The isotype background values have been used to set the gates so that a maximum at 2% of unspecific stained cells could be found in the positive gates.
The analysis of myeloid DCs was based on HLA-DR+/CD11c+/CD123-cells, thus all analyzed cells was included in the HLA-DR+(P3) gate and CD11c+/CD123− (Q4) gate (see gates in FIGS. 13-15).

[6] = system: human PBMCs; assay: IL-6 secretion in human PBMCs, two batches of Compound A and SC12 (Example 4); assay type: cell-based; conditions: 5 months storage in DMSO at 4° C.
Method: PBMCs were purified from two donors and plated into 96 well plates at 2×10^5 cells/well in RPMI media including human 2% heat inactivated AB serum, glutamine, Pen-strep and β-mercaptoethanol. The cells were treated with TLR7 agonists for 24 h in 4 doses. The conditioned media was removed for ELISA analyses for IL-6, and the EC50 value determined for each compound and each batch.
All compounds were tested in four concentrations (10-1-0.1-0.01 micromolar).
Concentrations of IL-6 were determined by ELISA from R&D Systems using the Microsoft Excel software. The results were analyzed in Graph Pad Prism in order to prepare dose-response curves, and for determination of EC50 values.

[7] = system: MB49 cells; assay: Mouse bladder cancer model, intravesical treatment (Experiment 24); assay type: in vivo
Method: A set of experiments was conducted with SC12 in various solutions, in a mouse bladder cancer model.
7-9 week old C57BU6 mice were implanted with 1×10^6 MB49 cells after 0.1% poly L lysine treatment on day 0. […] On day 11, mice were sacrificed and organs were harvested.

[8] = target: T1, CYP3A5 (Homo sapiens, UniProt P20815); assay: Fluorescent High Throughput P450 assay, CYP3A5; assay type: biochemical
T1 construct: purchased Gentest
T1 sequence (P20815 whole entry): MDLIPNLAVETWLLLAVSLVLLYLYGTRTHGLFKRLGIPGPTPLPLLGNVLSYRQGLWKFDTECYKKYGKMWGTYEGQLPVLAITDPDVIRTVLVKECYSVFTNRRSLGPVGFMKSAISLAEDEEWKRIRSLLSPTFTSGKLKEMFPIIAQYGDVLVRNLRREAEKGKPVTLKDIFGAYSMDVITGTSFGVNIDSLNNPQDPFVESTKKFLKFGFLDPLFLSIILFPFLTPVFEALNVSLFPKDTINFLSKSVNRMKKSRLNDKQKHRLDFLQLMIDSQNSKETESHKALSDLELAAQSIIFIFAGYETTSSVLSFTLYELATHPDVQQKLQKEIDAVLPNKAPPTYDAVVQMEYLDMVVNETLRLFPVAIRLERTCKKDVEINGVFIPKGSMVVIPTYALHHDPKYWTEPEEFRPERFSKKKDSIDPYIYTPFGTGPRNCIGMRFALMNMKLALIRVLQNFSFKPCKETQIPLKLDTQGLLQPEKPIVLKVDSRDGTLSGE
Method: Inhibition of the P450 isoforms was measured in specific assays using specific substrates that become fluorescent upon CYP metabolism. Compounds, dissolved in ACN (acetonitrile) (CYP2E1, CYP2C8, CYP2B6, CYP3A5) or DMSO (all remaining isoforms), were tested in duplicate (n=2) in concentration-response curves (eight concentrations) in a 96-well plate containing incubation/NADPH regenerating buffer. Specific isoenzymes and substrates were added and incubated at 37° C. Reactions were terminated at different times, depending on the assays, and plates read on a Fluoroskan Ascent at the appropriate emission/excitation wavelengths. Concentration-response curves performed in duplicate for known inhibitors for each isoenzyme were tested in every assay as positive control.

[9] = system: PBMCs; assay: IL-6 and TNF-alpha secretion in PBMC model (Model 2), ELISA; assay type: cell-based, human; conditions: three donors
[10] = system: plasmacytoid CD11c−/CD123+DCs; assay: FACS, plasmacytoid DC activation in whole blood; assay type: cell-based, human; conditions: 24 hours; 0.1 and 0.5 uM
Excerpt: The analysis of pDCs was based on HLA-DR+/CD11c−/CD123+ cells, thus all analyzed cells were included in the HLA-DR+ (P3) gate and CD11c−/CD123+(Q1) gate.

**Q.** For `CCCCCCCCCCCC(=O)OCC(COP(=O)(O)OCCNC(=O)c1ccc(Cn2c(=O)[nH]c3c(N)nc(OCCOC)nc32)cc1)OC(=O)CCCCCCCCCCC` (centres unmarked) [SC12], which “IL-10 production” value [1] is on record?
**A.** no IL-10 production was seen

**Q.** What about the “adverse behavioral effects” value ([2]; IV 1 mg/kg) of the same compound?
**A.** No adverse behavioral effects were noted

**Q.** And the “AUC INF obs” value ([2]; IV bolus 1 mg/kg, plasma)?
**A.** 12878 ng·min/mL

**Q.** And the AUClast ([2]; IV bolus 1 mg/kg, plasma)?
**A.** 11744 ng·min/mL

**Q.** What about the “toxicity” value [3] of the same compound?
**A.** No signs of toxicity

**Q.** What about the “mortality and clinical signs” value ([4]; 76 mg/kg, preliminary phase) of the same compound?
**A.** No mortality occurred

**Q.** What about the “mortality and clinical signs” value ([4]; 80 mg/kg, main phase) of the same compound?
**A.** No mortality occurred and no clinical signs were recorded

**Q.** And the “mortality and clinical signs” value ([4]; 85 mg/kg, preliminary phase)?
**A.** Piloerection was observed on the day of dosing

**Q.** What about the “necropsy examination” value ([4]; 90 mg/kg and 80 mg/kg) of the same compound?
**A.** No abnormalities were observed at necropsy examination

**Q.** What about the “mortality and clinical signs” value ([4]; 90 mg/kg, main phase, 5 male and 5 female) of the same compound?
**A.** Three males treated at 90 mg/kg died immediately after dosing, while two females died at 2 hours post-dose

**Q.** And the “mortality and clinical signs” value ([4]; 90 mg/kg, preliminary phase)?
**A.** No mortality occurred

**Q.** And the “mortality and clinical signs” value ([4]; 100 mg/kg, preliminary phase)?
**A.** Both animals died at dosing

**Q.** And the “body weight” value ([4]; surviving animals at 90 mg/kg and animals at 80 mg/kg)?
**A.** slight to moderate body weight loss on Day 2

**Q.** What about the “CCR7 expression in mDCs (MFI, words)” value [5] of the same compound?
**A.** less potent stimulator of CCR7 expression

**Q.** What about the “CD80 expression in mDCs (MFI, words)” value [5] of the same compound?
**A.** noteworthy CD80 expression in all three donors

**Q.** What about the “CD86 expression in mDCs (MFI, words)” value [5] of the same compound?
**A.** weak CD86 expression in donor 2 and 3, but not in donor 1

**Q.** What about the “activity after storage” value [6] of the same compound?
**A.** have not lost activity

**Q.** And the “serum IL-6 and TNF-alpha” value ([7]; Experiment 1, in Phosal 50, 50 microliters, 20 minutes, 2 h and 24 h)?
**A.** under the detection levels

**Q.** What about the “bladder histology, cell infiltration” value ([7]; Experiment 4, SC12 0.38%, MB49 implanted bladder, day 11) of the same compound?
**A.** more monocyte infiltration

**Q.** What about the “inhibition of CYP3A5” value [8] of the same compound?
**A.** moderate inhibition

**Q.** What about the “potency for TNF-alpha secretion” value [9] of the same compound?
**A.** on average slightly more potent than compound A

**Q.** And the “CD80 expression in pDCs (MFI, words)” value [10]?
**A.** slightly higher CD80 expression than compound A

**Q.** And the “CD86 expression in pDCs (MFI, words)” value [10]?
**A.** tendency to induce higher CD86 expression than compound A
